The values that follow come from ChEMBL document CHEMBL1146165, “Structure-based de novo design, synthesis, and biological evaluation of the indole-based PPARgamma ligands (I)” (Bioorg Med Chem Lett, 2006).

SMILES strings stand for the structures. pKd: −log10 of the molar value.

For this assay, the target named is T1, Peroxisome proliferator-activated receptor gamma (Homo sapiens, UniProt P37231).
T1 sequence (P37231 whole entry): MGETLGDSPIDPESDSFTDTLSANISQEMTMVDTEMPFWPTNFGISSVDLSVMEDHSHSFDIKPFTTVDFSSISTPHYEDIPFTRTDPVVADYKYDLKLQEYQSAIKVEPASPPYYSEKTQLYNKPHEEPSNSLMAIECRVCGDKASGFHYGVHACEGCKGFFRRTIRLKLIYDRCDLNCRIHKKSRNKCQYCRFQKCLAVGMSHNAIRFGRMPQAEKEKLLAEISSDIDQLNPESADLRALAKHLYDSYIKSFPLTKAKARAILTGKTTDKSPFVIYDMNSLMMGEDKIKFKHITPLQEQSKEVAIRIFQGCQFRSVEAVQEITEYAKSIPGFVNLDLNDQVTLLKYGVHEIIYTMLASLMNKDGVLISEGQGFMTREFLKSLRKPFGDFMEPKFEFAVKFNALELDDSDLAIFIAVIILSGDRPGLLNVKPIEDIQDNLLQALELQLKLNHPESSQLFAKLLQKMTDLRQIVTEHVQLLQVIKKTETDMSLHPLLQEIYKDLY
The assay is described as follows: Binding affinity to human PPARgamma.

The molecule `O=C(NC(Cc1c[nH]c2cc(OCc3ccccc3)ccc12)C(=O)O)c1ccc(Cl)cc1` (configuration not stated) showed a pKd of 5.16.

With `O=C(NC(Cc1c[nH]c2cc(OCc3ccccc3)ccc12)(C(=O)O)C(=O)O)c1ccc(Cl)cc1`, the pKd is 5.06.
